Measurements reported in patent US20250376461A1, “INDAZOLE DERIVATIVES FOR TREATING TRPM3-MEDIATED DISORDERS” (Katholieke Universiteit Leuven, priority 2022, published 2025).
pIC50: −log10 of the molar value.

target: T1, mouse TRPM3α2 (mTRPM3) ion channel (Mus musculus, UniProt J9SQF3); experiment: TRPM3 ion channel driven Ca2+ uptake, Fluo-4 AM assay, mTRPM3alpha2 overexpressing flip-in HEK293 cells stimulated with pregnenolone sulfate (50 μM); type: cell-based; conditions: mTRPM3 overexpressing HEK293 cells stimulated with pregnenolone sulfate (50 μM), activity ranges A, B, C
T1 construct: expressed in transfected cells; host or cells: flip-in HEK293
Procedure, shortened: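 Ca2+ influx via mouse TRPM3α2 was opened with pregnenolone sulfate (50 μM) and tracked by Fluo-4 AM fluorescence at 485/535 nm, read directly after adding about 2000 stably transfected HEK293 cells per well to compound. IC50 values come from percent inhibition scaled to vehicle and positive-control inhibitor signals.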

T1 sequence (J9SQF3 1-1709 isoform J9SQF3-12): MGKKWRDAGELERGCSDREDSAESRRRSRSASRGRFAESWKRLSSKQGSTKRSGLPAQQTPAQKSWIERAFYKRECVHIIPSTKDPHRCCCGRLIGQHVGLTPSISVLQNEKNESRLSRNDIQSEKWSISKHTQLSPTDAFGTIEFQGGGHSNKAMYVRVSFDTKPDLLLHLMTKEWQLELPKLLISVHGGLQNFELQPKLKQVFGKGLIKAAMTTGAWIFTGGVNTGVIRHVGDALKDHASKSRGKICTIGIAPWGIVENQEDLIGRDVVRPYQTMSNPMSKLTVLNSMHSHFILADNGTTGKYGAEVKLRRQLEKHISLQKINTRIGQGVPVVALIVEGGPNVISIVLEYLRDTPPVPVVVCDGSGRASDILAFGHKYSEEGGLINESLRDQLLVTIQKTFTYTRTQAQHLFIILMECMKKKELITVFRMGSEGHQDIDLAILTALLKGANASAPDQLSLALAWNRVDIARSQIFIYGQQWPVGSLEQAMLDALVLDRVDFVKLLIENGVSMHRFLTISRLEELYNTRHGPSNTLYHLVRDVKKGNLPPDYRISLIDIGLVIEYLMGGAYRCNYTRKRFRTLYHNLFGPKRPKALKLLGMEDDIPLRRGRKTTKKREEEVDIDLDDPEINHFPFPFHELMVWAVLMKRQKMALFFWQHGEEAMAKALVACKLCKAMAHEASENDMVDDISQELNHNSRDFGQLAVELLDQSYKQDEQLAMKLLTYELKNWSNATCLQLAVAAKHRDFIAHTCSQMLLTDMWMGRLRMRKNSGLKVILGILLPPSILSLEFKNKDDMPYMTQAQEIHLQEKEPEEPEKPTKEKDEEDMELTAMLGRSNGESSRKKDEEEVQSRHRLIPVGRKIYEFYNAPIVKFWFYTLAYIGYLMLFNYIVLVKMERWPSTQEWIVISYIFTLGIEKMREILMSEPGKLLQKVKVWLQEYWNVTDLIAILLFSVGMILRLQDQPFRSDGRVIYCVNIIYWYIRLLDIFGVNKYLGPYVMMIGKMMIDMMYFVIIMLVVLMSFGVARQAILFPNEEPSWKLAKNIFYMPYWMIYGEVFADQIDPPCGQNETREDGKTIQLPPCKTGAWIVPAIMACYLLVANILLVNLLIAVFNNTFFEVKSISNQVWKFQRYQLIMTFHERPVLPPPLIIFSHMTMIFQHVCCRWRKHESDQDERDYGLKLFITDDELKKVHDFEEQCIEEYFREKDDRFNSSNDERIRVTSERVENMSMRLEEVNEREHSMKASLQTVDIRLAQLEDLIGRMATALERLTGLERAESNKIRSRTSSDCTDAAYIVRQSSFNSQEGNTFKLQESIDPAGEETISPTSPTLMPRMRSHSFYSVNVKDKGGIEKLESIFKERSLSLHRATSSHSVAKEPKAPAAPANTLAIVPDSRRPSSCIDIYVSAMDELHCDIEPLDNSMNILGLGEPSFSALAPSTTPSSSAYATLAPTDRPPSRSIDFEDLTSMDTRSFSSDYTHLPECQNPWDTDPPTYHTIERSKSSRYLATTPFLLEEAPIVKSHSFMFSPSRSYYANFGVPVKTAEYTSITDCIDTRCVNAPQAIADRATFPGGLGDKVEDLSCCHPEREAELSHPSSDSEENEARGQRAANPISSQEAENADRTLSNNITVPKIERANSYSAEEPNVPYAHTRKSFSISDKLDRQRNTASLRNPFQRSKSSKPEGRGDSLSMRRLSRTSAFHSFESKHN

Compound | pIC50
Cn1nc2ccc(OCc3cccnc3C(F)(F)F)cc2c1C(=O)NC1(CO)CC1 [Cpd 022, N-[1-(hydroxymethyl)cyclopropyl]-2-methyl-5-{[2-(trifluoromethyl)pyridin-3-yl]methoxy}-2H-indazole-3-carboxamide] | 4.70 to 6.00
Cn1nc2ccc(OCc3ccccc3)cc2c1C(=O)NC(C)(C)CO [Cpd 023, 5-(benzyloxy)-N-(1-hydroxy-2-methylpropan-2-yl)-2-methyl-2H-indazole-3-carboxamide] | 4.70 to 6.00
Cc1ncsc1COc1ccc2nn(C)c(C(=O)NCC(C)(C)CO)c2c1 [Cpd 024, N-(3-hydroxy-2,2-dimethylpropyl)-2-methyl-5-[(4-methyl-1,3-thiazol-5-yl)methoxy]-2H-indazole-3-carboxamide] | 4.70 to 6.00
Cn1nc2ccc(OCc3ccccc3)cc2c1C(=O)NCc1cccc(O)n1 [Cpd 025, 5-(benzyloxy)-N-[(6-hydroxypyridin-2-yl)methyl]-2-methyl-2H-indazole-3-carboxamide] | > 6.00
Cn1nc2ccc(OCc3cccnc3C(F)(F)F)cc2c1C(=O)NC(CO)C(N)=O (stereo not shown) [Cpd 026, 3-hydroxy-2-[(2-methyl-5-{[2-(trifluoromethyl)pyridin-3-yl]methoxy}-2H-indazol-3-yl)formamido]propanamide] | > 6.00
Cn1nccc1COc1ccc2nn(C)c(C(=O)NC(CO)C(N)=O)c2c1 (stereo not shown) [Cpd 027, 3-hydroxy-2-({2-methyl-5-[(1-methyl-1H-pyrazol-5-yl)methoxy]-2H-indazol-3-yl}formamido)propanamide] | 4.70 to 6.00
Cn1nc2ccc(OCc3cccnc3C(F)(F)F)cc2c1C(=O)NC1(CO)CCC1 [Cpd 028, N-[1-(hydroxymethyl)cyclobutyl]-2-methyl-5-{[2-(trifluoromethyl)pyridin-3-yl]methoxy}-2H-indazole-3-carboxamide] | 4.70 to 6.00
Cn1nc2ccc(OCc3cccnc3C(F)(F)F)cc2c1C(=O)NC1(CO)CCOCC1 [Cpd 029, N-[4-(hydroxymethyl)oxan-4-yl]-2-methyl-5-{[2-(trifluoromethyl)pyridin-3-yl]methoxy}-2H-indazole-3-carboxamide] | 4.70 to 6.00
Cn1nccc1COc1ccc2nn(C)c(C(=O)NC3(C(N)=O)COC3)c2c1 [Cpd 030, N-(3-carbamoyloxetan-3-yl)-2-methyl-5-[(1-methyl-1H-pyrazol-5-yl)methoxy]-2H-indazole-3-carboxamide] | < 4.70
Cc1ncsc1COc1ccc2nn(C)c(C(=O)NC3(C(N)=O)COC3)c2c1 [Cpd 031, N-(3-carbamoyloxetan-3-yl)-2-methyl-5-[(4-methyl-1,3-thiazol-5-yl)methoxy]-2H-indazole-3-carboxamide] | 4.70 to 6.00
Cc1ncsc1COc1ccc2nn(C)c(C(=O)NC3CN(C)CC3(F)F)c2c1 (stereo not shown) [Cpd 032, N-(4,4-difluoro-1-methylpyrrolidin-3-yl)-2-methyl-5-[(4-methyl-1,3-thiazol-5-yl)methoxy]-2H-indazole-3-carboxamide] | 4.70 to 6.00
Cn1nc2ccc(OCc3ccccc3)cc2c1C(=O)NC1(C(N)=O)CCC1 [Cpd 033, 5-(benzyloxy)-N-(1-carbamoylcyclobutyl)-2-methyl-2H-indazole-3-carboxamide] | 4.70 to 6.00
CN1CC(NC(=O)c2c3cc(OCc4ccccc4)ccc3nn2C)C(F)(F)C1 (stereo not shown) [Cpd 034, 5-(benzyloxy)-N-(4,4-difluoro-1-methylpyrrolidin-3-yl)-2-methyl-2H-indazole-3-carboxamide] | 4.70 to 6.00
Cn1nccc1COc1ccc2nn(C)c(C(=O)NCc3cccc(O)n3)c2c1 [Cpd 035, N-[(6-hydroxypyridin-2-yl)methyl]-2-methyl-5-[(1-methyl-1H-pyrazol-5-yl)methoxy]-2H-indazole-3-carboxamide] | 4.70 to 6.00
Cn1nc2ccc(OCc3cccnc3C(F)(F)F)cc2c1C(=O)NCc1cccc(O)n1 [Cpd 036, N-[(6-hydroxypyridin-2-yl)methyl]-2-methyl-5-{[2-(trifluoromethyl)pyridin-3-yl]methoxy}-2H-indazole-3-carboxamide] | 4.70 to 6.00
Cc1ncsc1COc1ccc2nn(C)c(C(=O)NC3CCN(CCO)C3=O)c2c1 (stereo not shown) [Cpd 037, N-[1-(2-hydroxyethyl)-2-oxopyrrolidin-3-yl]-2-methyl-5-[(4-methyl-1,3-thiazol-5-yl)methoxy]-2H-indazole-3-carboxamide] | < 4.70
Cn1nc2ccc(OCc3ccccc3)cc2c1C(=O)NC1CCN(CCO)C1=O (stereo not shown) [Cpd 038, 5-(benzyloxy)-N-[1-(2-hydroxyethyl)-2-oxopyrrolidin-3-yl]-2-methyl-2H-indazole-3-carboxamide] | 4.70 to 6.00
Cn1nccc1COc1ccc2nn(C)c(C(=O)NC3CCN(CCO)C3=O)c2c1 (stereo not shown) [Cpd 039, N-[1-(2-hydroxyethyl)-2-oxopyrrolidin-3-yl]-2-methyl-5-[(1-methyl-1H-pyrazol-5-yl)methoxy]-2H-indazole-3-carboxamide] | < 4.70
CN1CCC(NC(=O)c2c3cc(OCc4cccnc4C(F)(F)F)ccc3nn2C)C1 (stereo not shown) [Cpd 040, 2-methyl-N-(1-methylpyrrolidin-3-yl)-5-{[2-(trifluoromethyl)pyridin-3-yl]methoxy}-2H-indazole-3-carboxamide] | 4.70 to 6.00
Cn1nc2ccc(OCc3ccccc3)cc2c1C(=O)NC1(C(N)=O)COC1 [Cpd 041, 5-(benzyloxy)-N-(3-carbamoyloxetan-3-yl)-2-methyl-2H-indazole-3-carboxamide] | 4.70 to 6.00
CN(C)C1(CNC(=O)c2c3cc(OCc4cccnc4C(F)(F)F)ccc3nn2C)CCC1 [Cpd 042, N-{[1-(dimethylamino)cyclobutyl]methyl}-2-methyl-5-{[2-(trifluoromethyl)pyridin-3-yl]methoxy}-2H-indazole-3-carboxamide] | 4.70 to 6.00
Cc1ncsc1COc1ccc2nn(C)c(C(=O)NC3(CO)CCC3)c2c1 [Cpd 043, N-[1-(hydroxymethyl)cyclobutyl]-2-methyl-5-[(4-methyl-1,3-thiazol-5-yl)methoxy]-2H-indazole-3-carboxamide] | 4.70 to 6.00
Cn1nccc1COc1ccc2nn(C)c(C(=O)NC3(CO)CCC3)c2c1 [Cpd 044, N-[1-(hydroxymethyl)cyclobutyl]-2-methyl-5-[(1-methyl-1H-pyrazol-5-yl)methoxy]-2H-indazole-3-carboxamide] | 4.70 to 6.00

More lines, now with the values ahead:

pIC50 | Compound
< 4.70 | Cn1nc2ccc(OCc3ccccc3)cc2c1C(=O)NCCN1CCOC1=O [Cpd 045, 5-(benzyloxy)-2-methyl-N-[2-(2-oxo-1,3-oxazolidin-3-yl)ethyl]-2H-indazole-3-carboxamide]
4.70 to 6.00 | CN(C)C1(CNC(=O)c2c3cc(OCc4ccnn4C)ccc3nn2C)CCC1 [Cpd 046, N-{[1-(dimethylamino)cyclobutyl]methyl}-2-methyl-5-[(1-methyl-1H-pyrazol-5-yl)methoxy]-2H-indazole-3-carboxamide]
4.70 to 6.00 | Cc1ncsc1COc1ccc2nn(C)c(C(=O)NC3(CO)CC3)c2c1 [Cpd 047, N-[1-(hydroxymethyl)cyclopropyl]-2-methyl-5-[(4-methyl-1,3-thiazol-5-yl)methoxy]-2H-indazole-3-carboxamide]
4.70 to 6.00 | Cc1ncsc1COc1ccc2nn(C)c(C(=O)NC3(CCO)CCC3)c2c1 [Cpd 048, N-[1-(2-hydroxyethyl)cyclobutyl]-2-methyl-5-[(4-methyl-1,3-thiazol-5-yl)methoxy]-2H-indazole-3-carboxamide]
< 4.70 | Cn1nccc1COc1ccc2nn(C)c(C(=O)NCC(C)(C)N3CCOCC3)c2c1 [Cpd 049, 2-methyl-5-[(1-methyl-1H-pyrazol-5-yl)methoxy]-N-[2-methyl-2-(morpholin-4-yl)propyl]-2H-indazole-3-carboxamide]
4.70 to 6.00 | Cn1nccc1COc1ccc2nn(C)c(C(=O)NC3CCN(CC(F)(F)F)C3)c2c1 (stereo not shown) [Cpd 050, 2-methyl-5-[(1-methyl-1H-pyrazol-5-yl)methoxy]-N-[1-(2,2,2-trifluoroethyl)pyrrolidin-3-yl]-2H-indazole-3-carboxamide]
4.70 to 6.00 | Cn1nc2ccc(OCc3ccccc3)cc2c1C(=O)NC1(CCO)CCC1 [Cpd 051, 5-(benzyloxy)-N-[1-(2-hydroxyethyl)cyclobutyl]-2-methyl-2H-indazole-3-carboxamide]
< 4.70 | Cc1ncsc1COc1ccc2nn(C)c(C(=O)NCCN3CCOC3=O)c2c1 [Cpd 053, 2-methyl-5-[(4-methyl-1,3-thiazol-5-yl)methoxy]-N-[2-(2-oxo-1,3-oxazolidin-3-yl)ethyl]-2H-indazole-3-carboxamide]
4.70 to 6.00 | Cn1nc2ccc(OCc3cccnc3C(F)(F)F)cc2c1C(=O)NCC1CCC(=O)N1 (stereo not shown) [Cpd 054, 2-methyl-N-[(5-oxopyrrolidin-2-yl)methyl]-5-{[2-(trifluoromethyl)pyridin-3-yl]methoxy}-2H-indazole-3-carboxamide]
4.70 to 6.00 | Cn1nccc1COc1ccc2nn(C)c(C(=O)NCCN3CCOC3=O)c2c1 [Cpd 055, 2-methyl-5-[(1-methyl-1H-pyrazol-5-yl)methoxy]-N-[2-(2-oxo-1,3-oxazolidin-3-yl)ethyl]-2H-indazole-3-carboxamide]
4.70 to 6.00 | Cc1ncsc1COc1ccc2nn(C)c(C(=O)NC3CCN(CC(F)(F)F)C3)c2c1 (stereo not shown) [Cpd 057, 2-methyl-5-[(4-methyl-1,3-thiazol-5-yl)methoxy]-N-[1-(2,2,2-trifluoroethyl)pyrrolidin-3-yl]-2H-indazole-3-carboxamide]
< 4.70 | Cn1nccc1COc1ccc2nn(C)c(C(=O)NC3(CO)CCOCC3)c2c1 [Cpd 058, N-[4-(hydroxymethyl)oxan-4-yl]-2-methyl-5-[(1-methyl-1H-pyrazol-5-yl)methoxy]-2H-indazole-3-carboxamide]
4.70 to 6.00 | Cn1nc2ccc(OCc3ccccc3)cc2c1C(=O)NC1CCN(CC(F)(F)F)C1 (stereo not shown) [Cpd 060, 5-(benzyloxy)-2-methyl-N-[1-(2,2,2-trifluoroethyl)pyrrolidin-3-yl]-2H-indazole-3-carboxamide]
4.70 to 6.00 | Cn1nccc1COc1ccc2nn(C)c(C(=O)NC3(C(N)=O)CCC3)c2c1 [Cpd 061, N-(1-carbamoylcyclobutyl)-2-methyl-5-[(1-methyl-1H-pyrazol-5-yl)methoxy]-2H-indazole-3-carboxamide]
